# Experiments:
# [1] = Osmolality of aqueous solutions; assay type: physicochemical
# [2] = Iodine content; assay type: physicochemical; details: for Iodine Content (%): comparison table with IOTROLAN
# [3] = system: Sprague-Dawley rats; test: Intravenous toxicity, lethal dose for 50% of the animals; assay type: in vivo; details: i.v. via the caudal vein at 2.2ml/min, mortality during seven days
# [4] = system: rat; test: ED50 after intracisternal (i.cis.) administration; assay type: in vivo
# [5] = Viscosity of aqueous solutions; assay type: physicochemical
Compound,Osmolality mosm/kg at 300mg I/ml ([1]; 300mg I/ml) [mosm/kg],Osmolality (mOsm/kg at 300 mg I/ml) 37°C [1] [mOsm/kg],% Iodine [2] [%],Iodine Content (%) [2],"LD50, rat i.v. (g I/kg) [3]","ED50, rat i.cis. (mg I/kg) [4] [mg I/kg]",Viscosity (mPa.S at 300 mg I/ml) 37°C [5],"Viscosity mPa s (30°C) at 300mg I/ml ([5]; 30°C, 300mg I/ml)"
"CC(=O)Nc1c(I)c(C(=O)NCC(O)CO)c(I)c(C(=O)N(CC(=O)Nc2c(I)c(C(=O)NCC(O)CO)c(I)c(C(=O)NCC(O)CO)c2I)CC(O)CO)c1I (stereo not shown) [EXAMPLE 36, N,N-bis-(2,3-dihydroxypropyl)-5-{3-[N-(2,3-dihydroxypropyl)carbamoyl]-5-acetamido-2,4,6-triiodobenzoyl-N-(2,3-dihidroxypropyl)aminoacetamido}-2,4,6-triiodoisophthalamide]",125,125,51,"51,0%",25-27 g I/kg,550,"8,3-8,8 mPa.S","8,8 mPa s"
"CN(C(=O)CC(=O)N(C)c1c(I)c(C(=O)NC(CO)C(O)CO)c(I)c(C(=O)NC(CO)C(O)CO)c1I)c1c(I)c(C(=O)NC(CO)C(O)CO)c(I)c(C(=O)NC(CO)C(O)CO)c1I (stereo not drawn) [IOTROLAN, N,N'-dimethyl-N,N'-bis[3,5-(l-hydroxymethyl-2,3-dihydroxy-propyl-carbamoyl) -2,4,6-triiodo-phenyl]-diamide of malonic acid, reference compound]",–,320,–,47%,25-28 g I/kg,315,"8,1-9,2 mPa.S",–

# — patent publication EP0571593B1, “NEW NON IONIC IODIZED AGENTS FOR X-RAY CONTRASTING, METHOD FOR PREPARING THEM AND GALENICAL COMPOSITIONS CONTAINING THEM” (CENTRO INVESTIGACION JUSTESA IMAGEN S.A., priority 1991, dated 1993)
